Patent US20230149338A1, “DIAGNOSIS AND TREATMENT OF ADDICTION” (The Regents of the University of California, priority 2020, published 2023)
Entries after “also recorded” stand apart in the source; their conditions may differ.

Assays:
Type in all cases: in vivo, rat
Sprague-Dawley rats [1] = experiment: Mechanical nociceptive von Frey test, passive oxycodone injection model
Description: (§1) The rats were subjected to microbiome depletion using a cocktail of non-absorbable antibiotics in their drinking water. Control rats were given regular drinking water. […] Withdrawal was precipitated at the end of the injection paradigm with a subcutaneous injection of naloxone (1 mg/kg) in the saline (SAL) group, withdrawal (WD) group, and antibiotic-treated withdrawal (WD+ABX) group. For the intoxication state, the rats were given a saline injection at the same time as the naloxone group. The OXY group included animals that were not treated with antibiotics in the intoxicated state, and the OXY+ABX group included animals that were treated with antibiotics in the intoxicated state. […] The rats were sacrificed and perfused 90 min after the naloxone injection in the WD, WD+ABX, and SAL groups and after 90 min following the saline injection (matched with the naloxone injection time point) in the OXY and OXY+ABX groups. Brains were then cryopreserved and stained for Fos expression.
Mechanical nociception, reflected by hindpaw withdrawal thresholds, was determined by an observer who was blind to the experimental groups using von Frey filaments that ranged from 3.63 to 281.838 g as previously reported (Dixon 1965, Kononoff et al. 2018). A test session began after 10 min of habituation to the testing environment immediately following the subcutaneous injection of naloxone (WD, WD+ABX, and SAL groups) or saline (OXY and OXY+ABX groups). […] The 50% paw withdrawal threshold was determined by the formula Xf+kδ, where Xf is the last von Frey filament applied, k is the Dixon value that corresponded to the response pattern, and […] is the mean difference between stimuli. Once the threshold was determined for the left hindpaw, the same testing procedure was repeated for the right hindpaw after 5 min. Paw withdrawal thresholds were recorded at baseline, during intoxication, and during precipitated withdrawal.

Sprague-Dawley rats [2] = experiment: Withdrawal score after naloxone-precipitated withdrawal
Description: as §1
To precipitate withdrawal, the rats were subcutaneously injected with naloxone and then placed in a Plexiglas observation chamber.
Withdrawal symptoms were categorized using a scale that was modified from (Gellert et al. 1978) and (Cicero et al. 2002). Graded signs of withdrawal were scored as the following: wet dog shakes (1 or 2 shakes=2; 3 or 4 shakes=3; […] shakes=4) and escape attempts (2-4 attempts=1; 5-9 attempts=2; ≥10 attempts=3). The following behaviors were measured per instance: abnormal posture/writhing, teeth chattering, ptosis (drooping eyelids), diarrhea, profuse salivation, urination, swallowing movements, and chromodacyorrhea (red tears). The total withdrawal score was calculated as the sum of all of the individual withdrawal scores. Immediately after withdrawal testing, all of the rats were returned to standard cages and given unrestricted access to food and water.

microbiome = experiment: 16S RNA sequencing of feces: alpha diversity and phyla; settings: post-treatment
Description: (§2) At each time point, approximately two fecal pellets were harvested and put directly into a cryovial, which was placed on powered dry ice. The pellets were then stored at −80° C. until processing for sequencing. At the time of DNA extraction, feces were thawed and extracted with the Qiagen DNeasy powersoil kit. The samples are then amplified by PCR in triplicate and then pooled. The 16S V4 gene was amplified using universal primers ([…]). Each sample was normalized to 240 ng per sample and purified. After purification, the A260/A280 ratio of the final pool was recorded to ensure purity, with a tolerance range of 1.8-2.0. The barcoded amplicons from all of the samples were normalized, pooled to construct the sequencing library, and sequenced using an Illumina MiSeq sequencer. The sequencing primers were the following: […]
(§3) After sequencing, the raw files were prepared, filtered for quality, and demultiplexed. Operational taxonomic units (OTUs) were selected using open-reference OUT picking based on 97% sequence similarity to the Greengenes database. Taxonomy assignment and rarefaction were performed using Qiita with 15,000 reads per sample (Gonzalez et al. 2018). The alpha diversity was measured using both the Shannon diversity index and Chao1 index and compared between baseline and treatment conditions. […]

Bacteroidetes = experiment: 16S RNA sequencing of feces: Bacteroidetes abundance
Description: as §2, §3

Firmicutes = experiment: 16S RNA sequencing of feces: Firmicutes abundance
Description: as §2, §3

Fos+ neurons = experiment: Fos immunohistochemistry, quantification of Fos+ neuronal ensembles
Description: Two hours later, the rats were injected with either saline (OXY and OXY+ABX groups) or 1 mg/kg naloxone (WD, WD+ABX, and SAL groups) to maintain intoxication or precipitate withdrawal, respectively. Brains were collected 90 min after the injection of naloxone or saline to produce both intoxicated and withdrawal groups. The rats were deeply anesthetized and perfused with 100 mL of phosphate-buffered saline (PBS) followed by 100 mL of 4% paraformaldehyde (PFA). Brains were postfixed in 4% PFA overnight and transferred to 30% sucrose in a PBS/0.1% azide solution at 4° C. for 2 days. Brains were frozen in powdered dry ice for 15-30 s and then sectioned coronally at 40 μm thickness throughout the brain using a cryostat. Representative sections were quantified from the following regions at the following coordinates according to the (Paxinos 2007) rat brain atlas: PVT (bregma −3.36), LHb (bregma −3.36), BLA (bregma −3.12), CeA (bregma −3.12), PAG (bregma −5.76), anterior agranular insula bregma (+3.00), BNST (bregma 0.00), and LC (bregma −9.16).
The sections were washed in PBS for 10 min three times and then incubated in 1% H2O2/PBS for 20 min to quench endogenous peroxidase activity. The sections were then rinsed for 10 min three times in PBS and incubated in blocking solution (PBS+0.3% TritonX-100, 1 mg/mL bovine serum albumin, and 5% normal donkey serum) for 1 h. The sections were then incubated for 24 h at room temperature with rabbit monoclonal anti-Fos antibody (Cell Signaling Technologies, catalog no. 2250, RRID: AB_2247211) diluted 1:1000 in PBS/0.5% Tween-20 and 5% normal donkey serum. Following incubation with the primary antibody, the sections were washed for 10 min three times in PBS and incubated for 2 h in undiluted rabbit ImmPress horseradish peroxidase reagent (Vector Laboratories, catalog no. MP-7451, RRID: 2631198).
The sections were then washed in PBS for 10 min three times and then developed for 6 min in Vector peroxidase 3,3′-diaminobenzidine (DAB) substrate (Vector Laboratories, catalog no. SK-4100, RRID: 2336382) enhanced with nickel chloride. Following rinses in PBS for 10 min three times, the sections were mounted on Fisher Super Frost Plus slides, air dried, and coverslipped with PVA-DABCO (Sigma Aldrich, catalog no. 10981). Following coverslipping, images were acquired using a Keyence BZX700 fluorescent microscope and analyzed using Fiji software.
Quantitative analysis to obtain unbiased estimates of the total number of Fos+positive cell bodies was performed using Fiji software with the Analyze Particles module (Schindelin et al. 2012). Slides were imaged on a Keyence BZX700 slide scanner and stitched at 2[…] magnification. Three sections were bilaterally analyzed for each rat and then averaged per animal (counted as n=1). A total of 4-6 animals of each sex per group were analyzed. Cell numbers were normalized to the area of the region of interest.

[3] = oxycodone + naloxone withdrawal vs SAL and OXY groups
[4] = oxycodone + naloxone withdrawal vs SAL group
[5] = withdrawal compared with the control group

COc1ccc2c3c1O[C@H]1C(=O)CC[C@@]4(O)[C@@H](C2)N(C)CC[C@]314 [oxycodone, Oxycodone]
decrease in pain thresholds (Sprague-Dawley rats [1]; WD and WD+ABX groups, naloxone-precipitated withdrawal): 64%
von Frey pain threshold during oxycodone intoxication (Sprague-Dawley rats [1]; oxycodone 2 mg/kg s.c. every 12 h, intoxicated animals vs saline, withdrawal groups and baseline): significantly higher von Frey scores; also recorded: higher pain thresholds
von Frey pain threshold during withdrawal (Sprague-Dawley rats [1]; oxycodone-dependent rats, naloxone 1 mg/kg precipitated withdrawal, vs saline, intoxication, baseline): significantly lower von Frey scores; also recorded: lower pain thresholds
increase in withdrawal signs (Sprague-Dawley rats [2]; WD and WD+ABX groups): 1420%
withdrawal score, intoxicated vs saline animals (Sprague-Dawley rats [2]; oxycodone intoxication): No significant difference in withdrawal scores
total withdrawal score during withdrawal (Sprague-Dawley rats [2]; oxycodone-dependent rats, naloxone-precipitated withdrawal, vs saline and intoxicated animals): significantly higher withdrawal scores
alpha diversity, Chao1 test, OXY vs SAL group (microbiome): no difference in alpha diversity
change in Bacteroidetes after treatment (Bacteroidetes; OXY group or OXY+ABX group compared with the matched SAL group): −19.01%
Bacteroidetes at the phylum level, group comparison (Bacteroidetes; post-treatment, OXY+ABX vs water and OXY groups, OXY vs SAL): No difference in Bacteroidetes
change in Firmicutes after treatment (Firmicutes; OXY group or OXY+ABX group compared with the matched saline group): 38.5%
Firmicutes at the phylum level, group comparison (Firmicutes; post-treatment, OXY+ABX vs SAL and OXY groups, OXY vs SAL): No difference in Firmicutes
number of Fos+ neurons, BLA, WD group (Fos+ neurons; oxycodone + naloxone withdrawal vs OXY and SAL groups): significant decrease in Fos+ neurons compared with the OXY group but no difference from the SAL group
number of Fos+ neurons, BNST, WD group (Fos+ neurons; [3]): significant increase in the number of Fos+ neurons; also recorded: significant decrease in the number of Fos+neurons compared with the WD and WD+ABX groups
number of Fos+ neurons, LHb, WD group (Fos+ neurons; [3]): significant increase in the number of Fos+neurons
number of Fos+ neurons, PAG, WD group (Fos+ neurons; [3]): significant increase in Fos+ neurons
number of Fos+ neurons, PVT, WD group (Fos+ neurons; [3]): significant increase in Fos+ positive neurons; also recorded: significant decrease in the number of Fos+ neurons in the SAL group compared with the WD and WD+ABX groups
number of Fos+ neurons, anterior insula, WD group (Fos+ neurons; [3]): significant increase in the number of Fos+ neurons
number of Fos+ neurons, CeA, WD group (Fos+ neurons; [4]): significant difference between the SAL and WD groups
number of Fos+ neurons, LC, WD group (Fos+ neurons; [4]): significant difference between the SAL group and the WD and WD+ABX groups
increase in the number of Fos+ neurons, LC (Fos+ neurons; [5]): 475%
increase in the number of Fos+ neurons, LHb (Fos+ neurons; [5]): 712%
increase in the number of Fos+ neurons, PVT (Fos+ neurons; [5]): 289%
increase in the number of Fos+ neurons, lateral BNST (Fos+ neurons; withdrawal, antibiotic-treated animals compared with the control group): 1272%
